Data: article PMC4822253, “Inhibition of BMP and of TGFβ receptors downregulates expression of XIAP and TAK1 leading to lung cancer cell death” (Molecular Cancer, 2016)

Legend:
[1] = tested on: H1299 Id1-luc tumor xenografts; assay: Tumor xenograft Id1 promoter-luciferase luminescence; type: in vivo, nude mice; settings: 3 mg/kg IP; 4 h, 24 h, and 48 h following treatment; greatest effect at 24 h
Protocol: H1299 cells were stably transfected with the Id1 promoter-luciferase reporter. Five million cells were injected subcutaneously into the flank of NCI female nude mice. After approximately 12 days the mice were anesthetized and the luciferase activity measured. Baseline luciferase activity was obtained just prior to the injection of inhibitors. Mice were injected IP with 150 mg/kg luciferin-D and after a 15-min uptake period tumors were imaged with IVIS Spectrum and analyzed using Living Image software. […] The tumors were harvested on ice, homogenized, and placed in lysis buffer.

[2] = tested on: lung cancer cell lines H157, A549, H1299, H727, U1752; assay: Western blot of Id1 in panel of lung cancer cell lines; type: cell-based; settings: 1 μM; 48 h; all cell lines of the panel
Protocol: Total cellular protein was prepared using RIPA buffer containing a protease inhibitor cocktail and protein concentration was measured using the BCA assay as described. In brief, protein was analyzed by SDS-PAGE, transferred to nitrocellulose (Schleicher and Schuell, Keene, NH). After blocking, the blots were incubated overnight at 4 °C with the appropriate primary antibody in Tris-buffered saline with 1 % Tween (TBST) and 5 % BSA. Secondary antibodies were applied for 1 h at room temperature. Specific proteins were detected using the enhanced chemiluminescence system (Amersham, Arlington Heights, IL). The primary antibodies that were used were rabbit monoclonal anti-pSmad 1/5, rabbit monoclonal anti-pSmad2, rabbit monoclonal anti-Smad2, rabbit monoclonal anti-pTAK1, rabbit monoclonal XIAP, rabbit anti-monoclonal p-p65, rabbit monoclonal anti-activated caspase-3, rabbit polyclonal anti-BMPRII, and rabbit monoclonal anti-EGR-1 (Cell signaling Technology, Danvers MA), Rabbit monoclonal anti-TAK1 (Invitrogen, Grand Island NY), rabbit anti-actin, an affinity isolated antigen specific antibody (Sigma, Saint Louis, MO), rabbit monoclonal anti-Id1 and rabbit monoclonal anti-Id3 (Calbioreagents, San Mateo, CA), rabbit polyclonal anti-GAPDH (Sigma, St. Louis, MO) and rabbit polyclonal pMEK-1/2 (Cell Signaling, Danvers MA).
Additional file 1: Figure S1. […]

[3] = tested on: lung cancer cell lines H157, A549, H1299, H727, U1752; assay: Cell counts in panel of lung cancer cell lines; type: cell-based; settings: 1 μM; 7 days; percent of vehicle control
Protocol: Cells were plated into 6 well plates at 10^5 cells per well and treated with 1 μM DMSO or antagonist for 7 days. The cells were detached with trypsin, stained with trypan blue, and the number of live cells counted using a hemocytometer.
Additional file 1: Figure S1. […] Data is depicted as percent of vehicle control. Experiments were performed 3 times. (TIF 749 kb) Additional file 2: Figure S2. […] Non-specific band from the same Western blot was used as a loading control. Experiments performed at least 3 times. (TIF 2680 kb) Additional file 3: Figure S3. Pharmacokinetics of DMH2. […] (TIF 1187 kb) Additional file 4: Figure S4. […] (A-B) Western blot of tumor xenografts treated with BMP inhibitors for 24 h and 9 days. […] (E-G) Data depict the mean as the percent of control. Experiments were performed at least 3 times. (TIF 9413 kb) Additional file 5: Figure S5. […] The data represents the mean of at least 4 experiments. (TIF 359 kb) Additional file 6: Figure S6. […] The studies represent the mean of at least 3 independent experiments. […] (TIF 2411 kb)

H1299 tumor xenografts = assay: Western blot analysis of tumor xenografts; type: in vivo, nude mice
Protocol: Total cellular protein was prepared using RIPA buffer containing a protease inhibitor cocktail and protein concentration was measured using the BCA assay as described. In brief, protein was analyzed by SDS-PAGE, transferred to nitrocellulose (Schleicher and Schuell, Keene, NH). After blocking, the blots were incubated overnight at 4 °C with the appropriate primary antibody in Tris-buffered saline with 1 % Tween (TBST) and 5 % BSA. Secondary antibodies were applied for 1 h at room temperature. Specific proteins were detected using the enhanced chemiluminescence system (Amersham, Arlington Heights, IL). […]
H1299 cells were stably transfected with the Id1 promoter-luciferase reporter. […] After approximately 12 days the mice were anesthetized and the luciferase activity measured. […] Mice were injected IP with 150 mg/kg luciferin-D and after a 15-min uptake period tumors were imaged with IVIS Spectrum and analyzed using Living Image software. […]

[4] = Plasma protein binding by equilibrium dialysis; type: in vitro ADME; settings: human plasma
H1299 cells = assay: Cell death assay (ethidium bromide uptake); type: cell-based
Protocol: (§1) Cells were plated in 6 well plates with 10^6 cells per well. Three days following treatment with inhibitor(s) and/or transfection the adherent and floating cells were harvested and incubated with 0.1 mg/ml of ethidium bromide. Cells that die by necrosis or apoptosis lose membrane integrity and take up ethidium bromide. Immediately after staining approximately 100 cells were counted and the percentage of cells that took up ethidium bromide was determined.

A549 cells = assay: Cell death assay (ethidium bromide uptake); type: cell-based; settings: after 3 days
Protocol: as §1

Alk3/BMPR1A = Alk3/BMPR1A (Homo sapiens, UniProt P36894); settings: read-out: IC50 Alk3/BMPR1A; kinase activity; ATP 10 Micromolar; 10-point, duplicate
Protocol: (§2) This was a 10-point assay starting from 100 μM to 100 nM performed in duplicate. The ATP concentration was 10 Micromolar.

Alk2/ACVRR1 = biological target: T1, Alk2/ACVRR1 (Homo sapiens, UniProt Q04771); settings: read-out: IC50 Alk2/ACVRR1; kinase activity; ATP 10 Micromolar; 10-point, duplicate
T1 sequence (Q04771 21-509): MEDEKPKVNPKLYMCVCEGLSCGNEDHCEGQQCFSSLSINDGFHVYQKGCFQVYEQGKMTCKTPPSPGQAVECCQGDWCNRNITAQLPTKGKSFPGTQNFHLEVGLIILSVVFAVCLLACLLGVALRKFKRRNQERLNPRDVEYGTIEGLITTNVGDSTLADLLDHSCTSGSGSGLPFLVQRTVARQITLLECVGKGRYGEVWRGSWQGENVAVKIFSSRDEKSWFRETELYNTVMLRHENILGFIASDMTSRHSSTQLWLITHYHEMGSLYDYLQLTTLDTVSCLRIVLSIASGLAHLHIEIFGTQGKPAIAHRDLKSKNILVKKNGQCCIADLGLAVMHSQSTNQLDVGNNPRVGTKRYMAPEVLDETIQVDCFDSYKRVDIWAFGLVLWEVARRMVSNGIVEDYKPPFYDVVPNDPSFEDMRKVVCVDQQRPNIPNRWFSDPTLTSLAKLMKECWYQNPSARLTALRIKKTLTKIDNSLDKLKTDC
Protocol: as §2

Alk6 = Alk6 (Homo sapiens, UniProt O00238); settings: read-out: IC50 Alk6/BMPRII; kinase activity; ATP 10 Micromolar; 10-point, duplicate
Protocol: as §2

Pharmacokinetics in mice = type: in vivo; settings: BALB/c mice; 2 mg/kg tail vein injection and 10 mg/kg p.o. study
Protocol: Three mice at each time point were dosed with a 2 mg/kg tail vein injection and 10 mg/kg p.o. Blood samples were taken 0.08, 0.25, 0.5, 1, 2, 4, 8, 12, and 24 h (i.v.) and 0.25, 0.5, 1, 2, 4, 6, 8, 12, and 24 h (p.o.). Plasma half-life, clearance, and volume of distribution were then determined.

Chain of Alk6 (O00238 149-502 limits assumed): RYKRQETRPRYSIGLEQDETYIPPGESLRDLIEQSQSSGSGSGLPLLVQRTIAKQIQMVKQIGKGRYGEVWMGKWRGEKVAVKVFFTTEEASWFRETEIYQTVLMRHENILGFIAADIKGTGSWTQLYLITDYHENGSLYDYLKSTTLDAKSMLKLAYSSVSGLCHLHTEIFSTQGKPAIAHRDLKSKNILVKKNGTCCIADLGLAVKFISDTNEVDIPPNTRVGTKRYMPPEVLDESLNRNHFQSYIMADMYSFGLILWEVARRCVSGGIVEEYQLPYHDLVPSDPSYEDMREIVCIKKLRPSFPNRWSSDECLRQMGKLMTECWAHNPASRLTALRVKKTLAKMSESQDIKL
Chain of Alk3/BMPR1A (P36894 24-532): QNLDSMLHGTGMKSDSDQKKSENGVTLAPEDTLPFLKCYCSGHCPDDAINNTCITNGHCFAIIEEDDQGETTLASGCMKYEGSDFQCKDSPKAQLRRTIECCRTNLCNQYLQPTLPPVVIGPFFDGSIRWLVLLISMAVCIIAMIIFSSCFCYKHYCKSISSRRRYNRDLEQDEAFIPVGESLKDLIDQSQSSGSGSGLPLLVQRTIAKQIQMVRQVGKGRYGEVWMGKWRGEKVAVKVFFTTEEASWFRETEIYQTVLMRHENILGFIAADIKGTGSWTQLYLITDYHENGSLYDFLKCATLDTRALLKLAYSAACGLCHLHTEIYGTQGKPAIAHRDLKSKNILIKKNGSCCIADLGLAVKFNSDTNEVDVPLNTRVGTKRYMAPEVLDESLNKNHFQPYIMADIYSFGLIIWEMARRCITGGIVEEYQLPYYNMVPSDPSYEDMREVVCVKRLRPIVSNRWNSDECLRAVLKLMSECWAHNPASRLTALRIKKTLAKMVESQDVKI

## c1ccc2c(-c3cnn4cc(-c5ccc(OCCN6CCOCC6)cc5)cnc34)ccnc2c1 [DMH2]
[1]
  tumor luminescence (Id1 promoter) compared to baseline: increased
[2]
  expression of Id1: decreased
[3]
  growth (cell counts): inhibited growth in all of the cell lines
H1299 tumor xenografts; 9 days, twice-daily injection, normalized to GAPDH
  increase in the expression of Id1 protein compared to controls: 103%
H1299 tumor xenografts; treated for 24 h and 9 days
  phosphorylated TAK1 and Smad2 in tumor xenografts: increase
[4]
  percent binding plasma proteins: 98.6 % +/−0.7
H1299 cells; H1299 cells
  cell death compared to DMH1 and LDN: significantly greater
H1299 cells; H1299 cells stably expressing mutant XIAP, 3 days
  cell death in cells expressing mutant XIAP: resistant to cell death
H1299 cells; H1299 cells, after 3 days
  cell death: significant cells death
A549 cells
  cell death: significant cells death
Alk3/BMPR1A
  IC50: 92 nM
Alk2/ACVRR1
  IC50: 23 nM
Alk6
  IC50: 43 nM
Pharmacokinetics in mice
  elimination half-life: 57 min
  systemic plasma clearance: 68.45 mL/min/kg
